Drawing on ChEMBL document CHEMBL5209588, “Membrane potential based assay for SLC6A9 using HEK-293 SLC6A9 OE cells” (2022), this text covers EC50 for 1 compound.

This test addresses T1, Sodium- and chloride-dependent glycine transporter 1 (Homo sapiens, UniProt P48067).
T1 sequence (P48067 whole entry): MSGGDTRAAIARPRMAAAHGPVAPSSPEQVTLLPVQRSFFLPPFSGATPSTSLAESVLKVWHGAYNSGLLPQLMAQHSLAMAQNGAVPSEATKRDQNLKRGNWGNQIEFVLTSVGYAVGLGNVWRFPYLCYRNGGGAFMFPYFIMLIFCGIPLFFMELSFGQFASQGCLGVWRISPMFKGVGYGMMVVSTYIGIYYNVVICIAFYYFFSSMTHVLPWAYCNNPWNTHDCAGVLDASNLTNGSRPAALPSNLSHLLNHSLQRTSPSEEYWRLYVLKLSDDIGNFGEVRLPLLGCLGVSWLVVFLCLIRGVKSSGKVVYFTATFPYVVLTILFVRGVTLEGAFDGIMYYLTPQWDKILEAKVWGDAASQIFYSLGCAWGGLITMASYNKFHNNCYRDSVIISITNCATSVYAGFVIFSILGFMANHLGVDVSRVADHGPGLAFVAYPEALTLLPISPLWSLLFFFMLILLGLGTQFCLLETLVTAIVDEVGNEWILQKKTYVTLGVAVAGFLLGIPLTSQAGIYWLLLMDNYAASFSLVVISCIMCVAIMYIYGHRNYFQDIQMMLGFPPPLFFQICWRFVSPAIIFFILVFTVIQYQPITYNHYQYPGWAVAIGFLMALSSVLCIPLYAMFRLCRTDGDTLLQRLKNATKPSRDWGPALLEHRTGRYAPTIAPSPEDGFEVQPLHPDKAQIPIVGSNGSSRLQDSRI

The structures appear in SMILES notation.

Description: Substrate uptake and inhibition of the Glycine Transporter-1 (GlyT1, SLC6A9) as assessed by the fluorescent FLIPR membrane potential dye in HEK-293 JumpIN-SLC6A9 cells (PubChem AID: 1794809)

With `NCC(=O)O` [GLYCINE], the EC50 – broadly, the concentration at which the effect is half-maximal – was found to be 106 µM.
